{"source": "patent US20040076586A1", "about": "“Compositions and methods for delivering pharmaceutically active agents using nanoparticulates” (priority 2002, published 2004)"}
{"compound": "CCOC(=O)CCCCCOC(=O)c1c(I)c(NC(C)=O)c(I)c(NC(C)=O)c1I", "note": "[PH-50, 6-ethoxy-6-oxohexy-3,5-bis(acetylamino)-2,4,6-triiodobenzoate]", "values": [{"measurement": "half-life in the vascular structures", "setting": "at functionally active concentrations, until metabolized by the liver", "result": "30 to 60", "unit": "min"}, {"measurement": "route of excretion", "setting": "in vivo", "result": "excreted from the body via the hepatic system rather than the renal system"}]}
